In brackets after ≈: the same amount, converted by molar mass.
Assays:
Escherichia coli [1] = assay: Antibacterial activity against Escherichia coli K12 carrying pR3521 encoding SCO1 by agar dilution technique; format: functional
Escherichia coli [2] = assay: Antibacterial activity against Escherichia coli DH5-alpha carrying pSCO1 encoding SCO1 by agar dilution technique; format: functional; conditions: DH5alpha
Escherichia coli [3] = assay: Antibacterial activity against Escherichia coli DH5-alpha by agar dilution technique; format: functional; conditions: DH5alpha
[4] = biological target: T1, Beta-lactamase SCO-1 (Escherichia coli) (UniProt A1E3K9); assay: Activity of Escherichia coli beta-lactamase SCO1 relative to penicillin G
T1 sequence (whole entry): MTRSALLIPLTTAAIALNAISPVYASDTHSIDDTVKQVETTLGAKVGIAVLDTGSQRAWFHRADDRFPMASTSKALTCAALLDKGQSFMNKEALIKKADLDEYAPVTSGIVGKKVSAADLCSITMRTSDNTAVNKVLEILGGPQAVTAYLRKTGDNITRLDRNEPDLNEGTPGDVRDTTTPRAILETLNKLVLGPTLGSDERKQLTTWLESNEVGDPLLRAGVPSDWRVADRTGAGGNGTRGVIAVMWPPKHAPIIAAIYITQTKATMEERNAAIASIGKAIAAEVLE

Escherichia coli [5] = assay: Activity of Escherichia coli K12 beta-lactamase CARB1 relative to penicillin G
[6] = biological target: Beta-lactamase TEM (Escherichia coli) (UniProt P62593); assay: Activity of Escherichia coli K12 beta-lactamase TEM1 relative to penicillin G
[7] = Inhibition of Escherichia coli K12 CARB1
Escherichia coli [8] = assay: Antibacterial activity against Escherichia coli 3521r carrying pR352 encoding SCO1 by agar dilution technique; format: functional
[9] = biological target: Beta-lactamase TEM (Escherichia coli) (UniProt P62593); assay: Inhibition of Escherichia coli TEM1

Sequence of Beta-lactamase TEM (Escherichia coli) (P62593 whole entry): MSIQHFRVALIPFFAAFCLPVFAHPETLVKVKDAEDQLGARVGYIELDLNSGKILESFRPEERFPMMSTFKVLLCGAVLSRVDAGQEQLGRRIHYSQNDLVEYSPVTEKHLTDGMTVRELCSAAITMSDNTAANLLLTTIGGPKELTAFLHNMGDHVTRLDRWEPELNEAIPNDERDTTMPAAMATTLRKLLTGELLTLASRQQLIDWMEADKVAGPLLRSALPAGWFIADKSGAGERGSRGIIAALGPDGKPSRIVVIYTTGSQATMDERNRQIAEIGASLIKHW

CO/N=C(\C(=O)N[C@@H]1C(=O)N2C(C(=O)[O-])=C(C[N+]3(C)CCCC3)CS[C@H]12)c1csc(N)n1
MIC (Escherichia coli [1]): 0.25 µg/mL (≈ 0.52 µM) | MIC (Escherichia coli [2]): ≤ 0.12 µg/mL | MIC (Escherichia coli [3]): ≤ 0.12 µg/mL

CC1(C)S[C@@H]2[C@H](NC(=O)[C@H](N)c3ccccc3)C(=O)N2[C@H]1C(=O)O
Activity [4]: 84

Cc1onc(-c2ccccc2)c1C(=O)N[C@@H]1C(=O)N2[C@@H]1SC(C)(C)[C@@H]2C(=O)O
Activity [4]: 4 | Activity (Escherichia coli [5]): 12

O=C(Cc1cccs1)N[C@@H]1C(=O)N2C(C(=O)[O-])=C(C[n+]3ccccc3)CS[C@H]12
Activity [4]: 21 | Activity (Escherichia coli [5]): 15 | Activity [6]: 154

CC1(C)C(C(=O)O)N2C(=O)C[C@H]2S1(=O)=O (single isomer, unassigned) [SULBACTAM]
IC50 [7]: 5000 nM

CC1(C)S[C@@H]2[C@H](NC(=O)[C@H](N)c3ccc(O)cc3)C(=O)N2[C@H]1C(=O)O [AMOXICILLIN]
MIC (Escherichia coli [1]): ≥ 256 µg/mL | Activity (Escherichia coli [5]): 100 | MIC (Escherichia coli [2]): ≥ 256 µg/mL | Activity [6]: 108 | MIC (Escherichia coli [8]): ≥ 256 µg/mL | MIC (Escherichia coli [3]): 4 µg/mL (≈ 10.9 µM)

C[C@H]1[C@H](NC(=O)/C(=N\OC(C)(C)C(=O)O)c2csc(N)n2)C(=O)N1S(=O)(=O)O [AZTREONAM]
MIC (Escherichia coli [1]): 1 µg/mL (≈ 2.3 µM) | MIC (Escherichia coli [2]): ≤ 0.12 µg/mL | MIC (Escherichia coli [8]): 1 µg/mL (≈ 2.3 µM) | MIC (Escherichia coli [3]): ≤ 0.12 µg/mL

CC1(C)S[C@@H]2[C@H](NC(=O)C(C(=O)O)c3ccccc3)C(=O)N2[C@H]1C(=O)O (some centres undefined) [CARBENICILLIN]
Activity [4]: 78 | MIC (Escherichia coli [1]): 64 µg/mL (≈ 169 µM) | Activity (Escherichia coli [5]): 146 | MIC (Escherichia coli [2]): 128 µg/mL (≈ 338 µM) | Activity [6]: 15 | MIC (Escherichia coli [8]): 128 µg/mL (≈ 338 µM) | MIC (Escherichia coli [3]): 1 µg/mL (≈ 2.64 µM)

CO/N=C(\C(=O)N[C@@H]1C(=O)N2C(C(=O)O)=C(COC(C)=O)CS[C@H]12)c1csc(N)n1 [CEFOTAXIME]
Activity [4]: < 1 | MIC (Escherichia coli [1]): 4 µg/mL (≈ 8.78 µM) | Activity (Escherichia coli [5]): < 1 | MIC (Escherichia coli [2]): ≤ 0.12 µg/mL | Activity [6]: < 1 | MIC (Escherichia coli [8]): 8 µg/mL (≈ 17.6 µM) | MIC (Escherichia coli [3]): ≤ 0.12 µg/mL

CO[C@@]1(NC(=O)Cc2cccs2)C(=O)N2C(C(=O)O)=C(COC(N)=O)CS[C@@H]21 [CEFOXITIN]
MIC (Escherichia coli [1]): 8 µg/mL (≈ 18.7 µM) | MIC (Escherichia coli [2]): 2 µg/mL (≈ 4.68 µM) | MIC (Escherichia coli [8]): 8 µg/mL (≈ 18.7 µM) | MIC (Escherichia coli [3]): 2 µg/mL (≈ 4.68 µM)

CC(C)(O/N=C(\C(=O)N[C@@H]1C(=O)N2C(C(=O)[O-])=C(C[n+]3ccccc3)CS[C@H]12)c1csc(N)n1)C(=O)O [CEFTAZIDIME]
Activity [4]: < 1 | MIC (Escherichia coli [1]): 32 µg/mL (≈ 58.5 µM) | Activity (Escherichia coli [5]): < 1 | MIC (Escherichia coli [2]): ≤ 0.12 µg/mL | Activity [6]: < 1 | MIC (Escherichia coli [8]): 32 µg/mL (≈ 58.5 µM) | MIC (Escherichia coli [3]): ≤ 0.12 µg/mL

CO/N=C(\C(=O)N[C@@H]1C(=O)N2C(C(=O)O)=C(COC(N)=O)CS[C@H]12)c1ccco1 [CEFUROXIME]
MIC (Escherichia coli [1]): 32 µg/mL (≈ 75.4 µM) | MIC (Escherichia coli [2]): 1 µg/mL (≈ 2.36 µM) | MIC (Escherichia coli [8]): 32 µg/mL (≈ 75.4 µM) | MIC (Escherichia coli [3]): 1 µg/mL (≈ 2.36 µM)

CC(=O)OCC1=C(C(=O)O)N2C(=O)[C@@H](NC(=O)Cc3cccs3)[C@H]2SC1 [CEPHALOTHIN]
Activity [4]: 3 | MIC (Escherichia coli [1]): ≥ 256 µg/mL | Activity (Escherichia coli [5]): 6 | MIC (Escherichia coli [2]): 8 µg/mL (≈ 20.2 µM) | Activity [6]: 27 | MIC (Escherichia coli [8]): ≥ 256 µg/mL | MIC (Escherichia coli [3]): 2 µg/mL (≈ 5.04 µM)

O=C(O)[C@H]1/C(=C/CO)O[C@@H]2CC(=O)N21 [CLAVULANIC ACID]
Activity [9]: 3 µM | IC50 [7]: 100 nM

C[C@@H](O)[C@H]1C(=O)N2C(C(=O)O)=C(SCCNC=N)C[C@H]12 [IMIPENEM ANHYDROUS]
MIC (Escherichia coli [2]): ≤ 0.12 µg/mL | MIC (Escherichia coli [3]): ≤ 0.12 µg/mL

CCN1CCN(C(=O)N[C@@H](C(=O)N[C@@H]2C(=O)N3[C@@H]2SC(C)(C)[C@@H]3C(=O)O)c2ccccc2)C(=O)C1=O [PIPERACILLIN]
MIC (Escherichia coli [1]): 64 µg/mL (≈ 124 µM) | MIC (Escherichia coli [2]): 32 µg/mL (≈ 61.8 µM) | MIC (Escherichia coli [8]): 128 µg/mL (≈ 247 µM) | MIC (Escherichia coli [3]): 2 µg/mL (≈ 3.86 µM)

C[C@]1(Cn2ccnn2)[C@H](C(=O)O)N2C(=O)C[C@H]2S1(=O)=O [TAZOBACTAM]
IC50 [7]: 80 nM

CC1(C)S[C@@H]2[C@H](NC(=O)[C@H](C(=O)O)c3ccsc3)C(=O)N2[C@H]1C(=O)O [TICARCILLIN]
MIC (Escherichia coli [1]): ≥ 256 µg/mL | MIC (Escherichia coli [2]): ≥ 256 µg/mL | MIC (Escherichia coli [8]): ≥ 256 µg/mL | MIC (Escherichia coli [3]): 2 µg/mL (≈ 5.2 µM)

— ChEMBL document CHEMBL1145510, “SCO-1, a novel plasmid-mediated class A beta-lactamase with carbenicillinase characteristics from Escherichia coli” (Antimicrob Agents Chemother, 2007)
